Test results from the supplement of paper PMC10307832.

What was measured:
Experiment in all cases: relative viability (nuclei count vs DMSO), 5 days (fraction); higher = more cells survive
[1] = compound: NC1(c2ccc(-c3nc4ccn5c(=O)[nH]nc5c4cc3-c3ccccc3)cc2)CCC1 [MK-2206] + Cc1nc(Nc2ncc(C(=O)Nc3c(C)cccc3Cl)s2)cc(N2CCN(CCO)CC2)n1 [Dasatinib] (partner 0.075 µM)
How it was run: (§1)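 Relative viability is defined as nuclei in treated wells over nuclei in vehicle wells. Duplicate plates were run and medians reported. Lung cancer cell lines in 1536-well plates were dosed by pin tool one day after seeding, with one drug or with a fixed anchor-drug dose plus five library-drug doses (not always all listed) in √10 steps, and nuclei were counted after 5 days.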

[2] = compound: NC1(c2ccc(-c3nc4ccn5c(=O)[nH]nc5c4cc3-c3ccccc3)cc2)CCC1 [MK-2206] + COc1cccc2cc(-c3nc([C@H]4CC[C@H](C(=O)O)CC4)n4ncnc(N)c34)[nH]c12 [OSI-027] (partner 0.5 µM)
How it was run: as §1

[3] = compound: NC1(c2ccc(-c3nc4ccn5c(=O)[nH]nc5c4cc3-c3ccccc3)cc2)CCC1 [MK-2206] + CC(=O)Nc1cccc(-n2c(=O)n(C3CC3)c(=O)c3c(Nc4ccc(I)cc4F)n(C)c(=O)c(C)c32)c1 [Trametinib] (partner 0.02 µM)
How it was run: as §1

[4] = compound: NC1(c2ccc(-c3nc4ccn5c(=O)[nH]nc5c4cc3-c3ccccc3)cc2)CCC1 [MK-2206] + Cc1nc(NC(=O)N2CCC[C@H]2C(N)=O)sc1-c1ccnc(C(C)(C)C(F)(F)F)c1 [Alpelisib] (partner 2 µM)
How it was run: as §1

[5] = compound: NC1(c2ccc(-c3nc4ccn5c(=O)[nH]nc5c4cc3-c3ccccc3)cc2)CCC1 [MK-2206] + CS(=O)(=O)CCNCc1ccc(-c2ccc3ncnc(Nc4ccc(OCc5cccc(F)c5)c(Cl)c4)c3c2)o1 [Lapatinib] (partner 2 µM)
How it was run: as §1

| Cell Line | relative viability ([1]; first compound 0.01 µM) | relative viability ([1]; first compound 0.03162 µM) | relative viability ([1]; first compound 0.3162 µM) | relative viability ([1]; first compound 1 µM) | relative viability ([2]; first compound 0.01 µM) | relative viability ([2]; first compound 0.03162 µM) | relative viability ([2]; first compound 0.3162 µM) | relative viability ([2]; first compound 1 µM) | relative viability ([3]; first compound 0.01 µM) | relative viability ([3]; first compound 0.03162 µM) | relative viability ([3]; first compound 0.3162 µM) | relative viability ([3]; first compound 1 µM) | relative viability ([4]; first compound 0.01 µM) | relative viability ([4]; first compound 0.03162 µM) | relative viability ([4]; first compound 0.3162 µM) | relative viability ([4]; first compound 1 µM) | relative viability ([5]; first compound 0.01 µM) | relative viability ([5]; first compound 0.03162 µM) | relative viability ([5]; first compound 0.3162 µM) | relative viability ([5]; first compound 1 µM) |
| --- | --- | --- | --- | --- | --- | --- | --- | --- | --- | --- | --- | --- | --- | --- | --- | --- | --- | --- | --- | --- |
| ChaGo-K-1 | 0.61 | 0.721 | 0.55 | 0.447 | 0.575 | 0.631 | 0.477 | 0.463 | 0.894 | 0.867 | 0.881 | 0.904 | – | – | – | – | – | – | – | – |
| EBC-1 | – | – | – | – | – | – | – | – | – | – | – | – | 0.767 | 0.843 | 0.388 | 0.28 | 0.217 | 0.2 | 0.174 | 0.224 |
| EKVX | 0.73 | 0.522 | 0.536 | 0.569 | 0.777 | 0.707 | 0.646 | 0.59 | 0.326 | 0.398 | 0.275 | 0.289 | 0.761 | 0.904 | 0.843 | 0.82 | 0.2 | 0.207 | 0.17 | 0.179 |
| EMC-BAC-2 | 0.266 | 0.334 | 0.335 | 0.312 | 0.415 | 0.364 | 0.287 | 0.313 | 0.863 | 0.799 | 0.78 | 0.673 | 0.768 | 0.764 | 0.729 | 0.693 | 0.859 | 0.959 | 0.901 | 0.805 |
| EPLC-272H | 0.486 | 0.333 | 0.256 | 0.306 | 0.31 | 0.259 | 0.26 | 0.266 | 0.266 | 0.307 | 0.298 | 0.312 | 0.993 | 0.851 | – | 0.929 | 1.06 | 0.916 | – | 1.33 |
| H3255 | 0.347 | 0.344 | 0.288 | 0.284 | 0.635 | 0.624 | 0.481 | 0.413 | 0.523 | 0.618 | 0.493 | 0.502 | 0.694 | 0.748 | 0.53 | 0.6 | 0.268 | 0.224 | 0.18 | 0.192 |
| HARA | 0.321 | 0.302 | 0.329 | 0.227 | 0.536 | 0.564 | 0.304 | 0.194 | 0.63 | 0.553 | 0.677 | 0.788 | 0.789 | 0.745 | 0.611 | 0.582 | 0.774 | 0.81 | 0.567 | 0.51 |
| HCC-15 | 0.578 | 0.643 | 0.442 | 0.422 | 0.663 | 0.675 | 0.436 | 0.404 | 0.362 | 0.387 | 0.309 | 0.295 | 0.836 | 0.884 | 0.859 | 0.832 | 0.825 | 0.9 | 0.657 | 0.8 |
| HCC-44 | – | – | – | – | 0.496 | 0.441 | 0.472 | 0.205 | 0.927 | 1.02 | 1.11 | 1.04 | 0.784 | 0.767 | 0.633 | 0.59 | 1.01 | 1.01 | 1.05 | 1.07 |
